Read-outs that look alike come from different tables or passages of the source.
Key:
human mGluR5a receptor = human mGluR5a receptor (Homo sapiens, UniProt P41594); assay: Cell-based functional assay (Ca2+ mobilization, FDSS) for positive allosteric modulation of mGluR5; conditions: for EC50: potentiation in presence of EC20 glutamate; for Emax: maximum % effect in concentration-response curve, as percent of response to maximally effective glutamate concentration
Procedure: The mGluR5 activity was determined using the metabotropic glutamate receptor activity assays in human embryonic kidney cells as described herein, wherein the human embryonic kidney cells were transfected with human mGluR5. The compounds in Table I were synthesized with methods identical or analogous to those shown herein. The Synthetic Route Reference indicated in Table I refers to the Reaction Scheme number described above. The requisite starting materials were commercially available, described in the literature, or readily synthesized by one skilled in the art of organic synthesis.
Human mGluR5a cDNA in pCMV6-XL6 mammalian expression plasmid was purchased from OriGene Technologies, Inc. (catalogue number SC326357) and subcloned into pcDNA3.1(−). […] Monoclones were named for the species (“H” for human) plus the location on the plate (e.g. “10H”).
HEK cells transfected with the human mGluR5a receptor (H10H or H12H cell line) were plated at 15,000 cells/well in clear-bottomed poly-D-lysine-coated assay plates (BD Falcon) in glutamate-glutamine-free growth medium and incubated overnight at 37° C. and 5% CO2. Cell-lines used were either the H10H or H12H cell-lines expressing the human mGluR5 receptor. The following day, the growth medium was removed and the cells were washed with assay buffer containing 1× Hank's balanced salt solution (Invitrogen, Carlsbad, Calif.), 20 mM HEPES, 2.5 mM probenecid, pH 7.4 and left with 20 μL of this reagent. Following this step, the cells were loaded with calcium indicator dye, fluo-4 AM, to a final concentration of 2 μM and incubated for 40-45 min at 37° C. The dye solution was removed and replaced with assay buffer. Cell plates were held for 10-15 min at room temperature and were then loaded into the Functional Drug Screening System 6000 (FDSS 6000, Hamamatsu, Japan).
After establishment of a fluorescence baseline for about 3 seconds, the compounds of the present invention were added to the cells, and the response in cells was measured. 2.3 minutes later an EC20 concentration of the mGluR5 receptor agonist glutamate was added to the cells, and the response of the cells was measured for about 1.7 minutes. All test compounds were dissolved and diluted to a concentration of 10 mM in 100% DMSO and then serially diluted into assay buffer for a 2× stock solution in 0.6% DMSO; stock compounds were then added to the assay for a final DMSO concentration of 0.3% after the first addition to the assay well. Calcium fluorescence measures were recorded as fold over basal fluorescence; raw data was then normalized to the maximal response to glutamate.
The concentration-response curves of compounds of the present invention, obtained in the presence of EC20 of mGluR5 receptor agonist glutamate to determine positive allosteric modulation, were generated using Microsoft Excel with IDBS XLfit add-ins. The raw data file containing all time points was used as the data source in the analysis template. This was saved by the FDSS as a tab-delimitted text file. Data were normalized using a static ratio function (F/F0) for each measurement of the total 350 values per well divided by each well's initial value. Data was then reduced as to peak amplitudes (Max—Initial Min) using a time range that starts approximately 1 second after the glutamate EC20 addition and continues for approximately 40 seconds. This is sufficient time to capture the peak amplitude of the cellular Calcium response. Individual amplitudes were expressed as % EMax by multiplying each amplitude by 100 and then dividing the product by the mean of the amplitudes derived from the glutamate ECMax-treated wells. pEC50 values for test compounds were generated by fitting the normalized values versus the log of the test compound concentration (in mol/L) using a 4 parameter logistic equation where none of the parameters were fixed.

[1] = HEK cells transfected with human mGluR5a (H10H or H12H), read-out: EC50
[2] = HEK cells transfected with human mGluR5a (H10H or H12H), concentration in mol/L, read-out: pEC50 (converted)
[3] = pEC50, HEK cells transfected with human mGluR5a (H10H or H12H), concentration in mol/L
[4] = EC50 (nM), HEK cells transfected with human mGluR5a (H10H or H12H)

Chain of human mGluR5a receptor (P41594 21-1180 isoform P41594-2 limits assumed): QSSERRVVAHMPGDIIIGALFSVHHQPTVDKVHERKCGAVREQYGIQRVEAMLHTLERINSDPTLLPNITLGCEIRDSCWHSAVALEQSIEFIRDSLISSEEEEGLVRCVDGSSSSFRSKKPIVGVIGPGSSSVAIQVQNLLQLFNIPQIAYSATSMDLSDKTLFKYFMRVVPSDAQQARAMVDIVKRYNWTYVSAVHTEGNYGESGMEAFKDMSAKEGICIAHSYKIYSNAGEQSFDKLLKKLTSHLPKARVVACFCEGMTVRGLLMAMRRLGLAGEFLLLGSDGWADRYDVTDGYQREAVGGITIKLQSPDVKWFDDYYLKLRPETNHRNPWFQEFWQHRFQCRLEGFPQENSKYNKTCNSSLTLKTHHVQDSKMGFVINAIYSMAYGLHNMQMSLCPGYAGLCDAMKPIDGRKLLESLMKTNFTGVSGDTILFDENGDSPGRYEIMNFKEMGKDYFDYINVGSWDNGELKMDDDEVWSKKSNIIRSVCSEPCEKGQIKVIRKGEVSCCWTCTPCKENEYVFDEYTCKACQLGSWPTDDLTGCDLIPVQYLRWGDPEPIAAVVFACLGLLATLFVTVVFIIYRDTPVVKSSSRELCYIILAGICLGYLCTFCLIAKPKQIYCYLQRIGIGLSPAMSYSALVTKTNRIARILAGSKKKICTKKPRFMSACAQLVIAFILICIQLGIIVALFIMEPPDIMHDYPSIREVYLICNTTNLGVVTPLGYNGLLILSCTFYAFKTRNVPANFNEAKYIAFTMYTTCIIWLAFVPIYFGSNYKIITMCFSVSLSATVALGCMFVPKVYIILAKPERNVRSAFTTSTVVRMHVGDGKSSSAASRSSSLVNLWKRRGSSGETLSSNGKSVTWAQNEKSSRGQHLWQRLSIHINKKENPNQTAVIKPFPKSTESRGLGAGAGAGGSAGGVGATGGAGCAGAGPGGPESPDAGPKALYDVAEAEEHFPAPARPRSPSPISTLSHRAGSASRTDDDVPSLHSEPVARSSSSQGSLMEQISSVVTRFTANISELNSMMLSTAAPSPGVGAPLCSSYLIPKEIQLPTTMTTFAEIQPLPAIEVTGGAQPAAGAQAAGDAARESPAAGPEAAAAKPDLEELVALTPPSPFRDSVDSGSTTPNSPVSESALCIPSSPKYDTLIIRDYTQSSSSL

Row | SMILES | EC50 (human mGluR5a receptor; [1]) [nM] | melting point [°C] | EC50 (human mGluR5a receptor; [2]) [nM] | Emax (human mGluR5a receptor) [%] | EC50 (human mGluR5a receptor; [3]) [nM] | EC50 (human mGluR5a receptor; [4]) [nM]
1 | N#Cc1ccc(OCc2cn3c(=O)n(-c4cccc(C(F)(F)F)c4)ccc3n2)cc1 [compound 22] | > 10000 | 189.4 |  |  |  | 
2 | O=c1n(-c2ccc(F)cc2)cc(F)c2nc(COc3ccccc3)cn12 [compound 20] | 78 | 110.7 | 85.1 | 73 |  | 
3 | O=C1N(c2ccc(F)cc2)CCc2nc(COc3cccc(F)c3)cn21 [compound 34] | 65 | 141.1 |  | 73 | 67.6 | 
4 | O=C1N(c2ccc(F)cc2)CCc2nc(COc3ccccc3)cn21 [compound 31] | 97 | 195.2 | 102 | 71 |  | 
5 | O=c1n(CC2CC2)ccc2nc(COc3ccccc3)cn12 [compound 17] |  | 102.1 | 1050 | 51 |  | 1100
6 | Cc1cc(-n2ccc3nc(COc4ccccc4)cn3c2=O)ncc1F [compound 23] | 327 | 203.1 | 331 | 60 |  | 
7 | Cc1nc(N2CCc3nc(COc4ccccc4)cn3C2=O)ccc1F [compound 38] | 166 |  |  | 72 | 178 | 
8 | O=C1N(c2ccc(F)cc2)CCc2nc(COc3ccc(F)cc3)cn21 [compound 35, 2-(4-fluoro-phenoxymethyl)-6-(4-fluoro-phenyl)-7,8-dihydro-6H-imidazo[1,2-c]pyrimidin-5-one] | 188 | 182.3 | 170 | 68 |  | 
9 | O=C1N(c2ccc(F)cc2)CCc2nc(COc3ccccc3)c(Cl)n21 [compound 42, 3-chloro-6-(4-fluoro-phenyl)-2-phenoxymethyl-7,8-dihydro-6H-imidazo[1,2-c]pyrimidin-5-one] | > 30200 | 200.1 |  | 17 |  | 
10 | Cc1ccc(N2CCc3nc(COc4ccccc4)cn3C2=O)nc1 [compound 36, 6-(5-methyl-pyridin-2-yl)-2-phenoxymethyl-7,8-dihydro-6H-imidazo[1,2-c]pyrimidin-5-one] | 468 |  |  | 63 |  | 
11 | Cn1ccc2nc(COc3ccccc3)cn2c1=O [compound 2] | > 10000 | 130.9 |  | 69 |  | 
12 | O=C1N(c2ccc(F)cn2)CCc2nc(COc3ccccc3)cn21 [compound 39] | 389 | 135 | 316 | 64 |  | 
13 | Cc1cn(-c2ccc(F)cc2)c(=O)n2cc(COc3ccccc3)nc12 [compound 27, 6-(4-fluoro-phenyl)-8-methyl-2-phenoxymethyl-6H-imidazo[1,2-c]pyrimidin-5-one] | > 30200 | 146.9 |  | 16 |  | 
14 | O=c1[nH]ccc2nc(COc3ccccc3)cn12 [compound 1, 2-phenoxymethyl-6H-imidazo[1,2-c]pyrimidin-5-one] | > 30200 |  |  | 19 |  | 
15 | O=c1n(-c2ccc(F)cc2)ccc2nc(COc3ccccc3)c(Cl)n12 [compound 29, 3-chloro-6-(4-fluoro-phenyl)-2-phenoxymethyl-6H-imidazo[1,2-c]pyrimidin-5-one] | > 30200 | 170.3 |  | 17 |  | 
16 | O=c1n(-c2ccc(F)c(F)c2)ccc2nc(COc3ccccc3)cn12 [compound 5] |  | 296.6 | 214 | 79 |  | 228
17 | COc1nccc(-n2ccc3nc(COc4ccccc4)cn3c2=O)n1 [compound 25, 6-(2-methoxy-pyrimidin-4-yl)-2-phenoxymethyl-6H-imidazo[1,2-c]pyrimidin-5-one] | 570 | 171.2 |  | 46 |  | 
18 | Cc1cc(N2CCc3nc(COc4ccccc4)cn3C2=O)ncc1F [compound 40] | 351 | 196.5 | 269 | 61 |  | 
19 | O=c1n(-c2ccc(F)cn2)ccc2nc(COc3ccccc3)cn12 [compound 9] | 490 |  |  | 75 |  | 

Source: patent US8865725B2, “Substituted imidazopyrimidin-5(6H)-ones as allosteric modulators of MGLUR5 receptors” (Vanderbilt University, priority 2011, dated 2014)
